From patent US20130089591A1, “Compositions” (Givaudan SA, priority 2010, published 2013)

What was measured:
[1] = Aggregation of polyurea capsules, Method 5.6; type: physicochemical; design: key: ∘: no aggregation of the capsules; +: aggregation of few capsules together only visible under microscopy; ++: aggregates of mm size; +++: important aggregation; ++++: aggregation is such that a cake is obtained; details: polyurea Method 5.6, phase A of Table 1; for Encapsulation, No precursor (scale of aggregation): free aldehyde as phase B; for Encapsulation, With precursor (scale of aggregation): precursor (Method 1.1) as phase B
Method: An oil phase was prepared when Desmodur VL R20 (Bayer) was added in perfume oil at a level of 2.5%.
An aqueous phase (Solution S1) was prepared when Mowiol 4-88 (Kururay) was added in water, at a level of 0.1%.
An aqueous phase (Solution S2) was prepared when diethylentriamine (Merck) was added in water, at a level of 2%.
100 g of oil phase was mixed with 250 g of solution S1, to form an oil-in-water emulsion, in a 500 mL vessel equipped with a propeller operating at 1000 rpm.
After 10 min of stirring, 50 g of solution S2 was added.
The slurry was stirred for 4 h at room temperature.
The Method 5.6 of Example 5 was applied to encapsulate different perfume oils described as phase A (non aldehyde raw materials) and phase B (aldehyde raw materials).
The composition of Phase A is described in Table 1. Phase B is an aldehyde perfume molecule used as such or as its precursor form prepared according to Method 1.1.
According to the aspect of the slurry a scale of aggregation has been defined as follow: […]
(§1) ∘ no aggregation of the capsules + aggregation of few capsules together only visible under microscopy ++ aggregates of mm size +++ important aggregation ++++ aggregation is such that a cake is obtained

[2] = Water solubility of the aldehyde
[3] = Aggregation of polyamide capsules (Example 2 method); type: physicochemical; design: key to Encapsulation, No precursor (scale of aggregation) / Encapsulation, With precursor (scale of aggregation): ∘: no aggregation of the capsules; +: aggregation of few capsules together only visible under microscopy; ++: aggregates of mm size; +++: important aggregation; ++++: aggregation is such that a cake is obtained; details: for Encapsulation, No precursor (scale of aggregation): free aldehyde as phase B at 5% in phase A of Table 1; for Encapsulation, With precursor (scale of aggregation): precursor of the aldehyde (Method 1.1) as phase B at 5% in phase A of Table 1
Method: An oil phase was prepared by dissolving isophtahaloyl dichloride (Fluka) in oil (oil composition specified in the examples below) at a level of 10%
An aqueous solution (Solution S1) was prepared by dissolving a polyvinyl alcohol Mowiol 4-88 (Kuru ray) in water at a level of 1%.
An aqueous solution (Solution S2) was prepared when triethylentetraamine (Hunstman) was diluted in water at a level of 3%.
100 g of the oil phase was mixed with 450 g of solution S1 to form an oil-in-water emulsion in a 1 L reactor equipped with a MIG stirrer operating at 1000 rpm. After 5 minutes of mixing, 450 g of solution S2 was slowly added. The resultant slurry of polyamide capsules was kept under stirring for 2 H.
Two capsule populations were formed. A first encapsulating IPM (isopropyl myristate) and a second containing IPM+5% of ethyl vaniline. The capsules were made according to the method of Example 2.
The methodology of Example 2 was applied to encapsulate different perfume oils described as phase A (non aldehyde raw materials) and phase B (aldehyde raw materials).
The phase B was added at 5% to the phase A prior to encapsulation. Different compositions of phase B have been used corresponding each time to a single aldehyde perfume molecule or to its precursor formed according to the methodology of Method 1.1, above.
According to the condition of the slurry a scale of aggregation has been defined as follows: […]
as §1

[4] = Aggregation of polyurea capsules, Method 5.1; type: physicochemical; details: for Encapsulation (aggregation): free aldehyde at 5% in IPM
Method: An oil phase was prepared by adding Desmodur W (Isocyanate from Bayer) to a perfume oil at a level of 16.6%.
An aqueous phase (solution S1) was prepared by adding Luviskol k90 (BASF) to water, at a level of 4.5%. The pH of the solution was adjusted to 11.5 by addition of NaOH at 10%.
An aqueous phase (Solution S2) was prepared when Lupasol PR8515 (BASF) was added to water, at a level of 10%.
300 g of the oil phase was mixed with 500 g of solution S1, to form an oil-in-water emulsion, in a 1 L reactor equipped with a MIG stirrer operating at 1000 rpm.
After 30 minutes of mixing, 200 g of solution S2 was added over a period of 1 minute.
After 30 minutes, the slurry was heated up to 70° C. (1 H), then kept for 2 H at 70° C., then heated to 80° C. and kept for 1 H at 80° C., then heated to 85° C. and kept for 1 H at 85° C., then cooled to 70° C. and kept for 1 H at 70° C. before final cooling at 25° C.
The Method 5.1 of Example 5 was applied to encapsulate different perfume oils described as phase A (non aldehyde raw materials) and phase B (aldehyde raw materials).
In the following trials, phase A was IPM and phase B was aldehyde perfume molecules. Phase B was added at a level of 5% in phase A.
Phase B contains aldehyde C11 iso or the corresponding precursor prepared according to Method 1.1.
Phase B was added at a level of 5% in phase A.

[5] = Aggregation of polyurea capsules, Method 5.5; type: physicochemical; design: key: ∘: no aggregation of the capsules; +: aggregation of few capsules together only visible under microscopy; ++: aggregates of mm size; +++: important aggregation; ++++: aggregation is such that a cake is obtained; details: polyurea Method 5.5, phase A of Table 1; for Encapsulation, No precursor (scale of aggregation): free aldehyde as phase B; for Encapsulation, With precursor (scale of aggregation): precursor (Method 1.1) as phase B
Method: An oil phase was prepared when Desmodur W and Desmodur N3300 (Bayer) were added in perfume oil at a level of 2.2% and 13% respectively.
An aqueous phase (Solution S1) was prepared when Gantrez AN119 (ISP) was added to water, at a level of 1.6%. The solution was heated at 70° C. for 10 min to disperse the polymer.
An aqueous phase (Solution S2) was prepared when Ethylene diamine (Merck) was added to water, at a level of 7.5%.
30 g of the oil phase was mixed with 80 g of solution S1, to form an oil-in-water emulsion, in a 250 mL vessel equipped with a propeller operating at 1000 rpm.
After 10 min of stirring, 20 g of solution S2 was added.
The slurry was stirred for 30 min at room temperature, then heated to 60° C. and stirred for 3 H at 60° C. before cooling.
The Method 5.5 of Example 5 was applied to encapsulate different perfume oils described as phase A (non aldehyde raw materials) and phase B (aldehyde raw materials).
The composition of Phase A was described in Table 1 above. Phase B is an aldehyde perfume molecule used as such or as its precursor form prepared according to Method 1.1.
According to the aspect of the slurry a scale of aggregation was defined as follow: […]
as §1
Phase B was added at a level of 20% of aldehyde in phase A.

Encapsulation, No precursor (scale of aggregation) [1]	Encapsulation, With precursor (scale of aggregation) [1]	Water solubility ([2]; Table of Example 13) [ppm]	Molecule	other results
+++	∘	160	CC(CC=O)CC(C)(C)C (stereo not drawn) [Ald C9 isononylic]	
++++	∘	61	CCCCCCCCCC=O [Aldehyde C10]	Encapsulation, No precursor (scale of aggregation) [3]: +++; Encapsulation, With precursor (scale of aggregation) [3]: +; Encapsulation (aggregation) [4]: Aggregation; Encapsulation, No precursor (scale of aggregation) [5]: +++; Encapsulation, With precursor (scale of aggregation) [5]: ∘; Water solubility ([2]; Table 2): 61 ppm; Water solubility ([2]; Table 3): 61 ppm; Water solubility ([2]; Table of Example 11): 61 ppm
++++	∘		CCCCCCCCCCCC=O [Aldehyde C12 laurique]	Encapsulation, No precursor (scale of aggregation) [3]: +++; Encapsulation, With precursor (scale of aggregation) [3]: ∘; Encapsulation (aggregation) [4]: Aggregation; Encapsulation, No precursor (scale of aggregation) [5]: ++; Encapsulation, With precursor (scale of aggregation) [5]: ∘
∘	∘		CCCCCCCCCC(C)C=O (stereo not drawn) [Aldehyde C12 mna]	Encapsulation, No precursor (scale of aggregation) [3]: ++; Encapsulation, With precursor (scale of aggregation) [3]: ∘; Encapsulation, No precursor (scale of aggregation) [5]: ∘; Encapsulation, With precursor (scale of aggregation) [5]: ∘
			COc1ccc(C=O)cc1 [Aubepine para cresol]	Encapsulation, No precursor (scale of aggregation) [3]: ++; Encapsulation, With precursor (scale of aggregation) [3]: ∘; Water solubility ([2]; Table 2): 6 ppm
++++	∘		CCCCCC=O [Capronaldehyde (hexanal)]	
++	∘	280	CC(C)c1ccc(C=O)cc1 [Cuminic ald]	
∘	∘		CC(C)(O)CCCC1=CCC(C=O)CC1 (stereo not drawn) [Cyclohexal]	
∘	∘		CC1(C)CCCC2=C1CC(C=O)CC2 (stereo not drawn) [Cyclomyral]	
			CC(C)c1cccc(C(C)CC=O)c1 (stereo not drawn) [Florhydral]	Encapsulation (aggregation) [4]: Aggregation; Water solubility ([2]; Table 3): 51 ppm
+	∘	2	CCCCCC/C(C=O)=C\c1ccccc1 [Hexyl cinnamic ald]	
+	+	650	CC(C=O)c1ccccc1 (stereo not drawn) [Hydratropic ald]	
+++	∘	1800	CC(CC=O)CCCC(C)(C)O (stereo not drawn) [Hydroxycitronellal]	Encapsulation (aggregation) [4]: Aggregation; Encapsulation, No precursor (scale of aggregation) [5]: ++++; Encapsulation, With precursor (scale of aggregation) [5]: ∘; Water solubility ([2]; Table 3): 1800 ppm; Water solubility ([2]; Table of Example 11): 1800 ppm
∘	∘	100	CC(CC=O)CCc1ccccc1 (stereo not drawn) [Mefranal]	
++++	∘	344	CC(C)=CCCC(C)C=O (stereo not drawn) [Melonal, 2,6-dimethyl-5-heptenal]	
∘	∘	580	C/C(C=O)=C\c1ccccc1 [Methyl cinnamic ald]	
++	∘		COC1CC2CC1C1CC(C=O)CC21 (stereo not drawn) [Scentenal]	
			CCOc1cc(C=O)ccc1O [ethyl vaniline]	Aggregation, microscopic examination ([3]; IPM + 5% aldehyde): significant aggregation
			Aldehyde iso C11	Encapsulation, No precursor (scale of aggregation) [3]: +++; Encapsulation, With precursor (scale of aggregation) [3]: +; Slurry aspect ([4]; phase B at 5% in phase A of Table 4, listed as Aldehyde C11 iso): Cake; Slurry aspect ([4]; phase B at 5% in phase A of Table 4, listed as aldehyde C11 iso): aggregate; Water solubility ([2]; Table 2): 30 ppm

Molecule	Encapsulation, No precursor (scale of aggregation) [1]	Encapsulation, With precursor (scale of aggregation) [1]	Water solubility ([2]; Table of Example 13) [ppm]	other results
O=C/C=C/c1ccccc1 [Cinnamic ald]	+	∘	1900	
CC1(C)C2CC=C(CCC=O)C1C2 (stereo not drawn) [Pino acetaldehyde]	++++	∘	86	
